Key:
H2030 spheroids = assay: Spheroid Western blot assay, H2030; type: cell-based
Method: NSCLC cell lines H358 (catalog #CRL-5807) and H2030 (catalog #CRL-5914), and fibrosarcoma cell line HT-1080 (catalog […]) were obtained from the American Type Culture Collect (ATTC, Manassas, VA). Cells were grown in RPMI-1640 medium supplemented with 10% heat-inactivated fetal bovine serum and 1% Penicillin/Streptomycin/L-Glutamine (Invitrogen, Carlsbad, CA) at 37° C., 5% CO2, and 95% humidity and maintained at 50-80% confluency until use. Cells were plated at 500,000 cells/well in 24-well Elplasia plates (Corning, Glendale, AZ) with complete growth media at 1 mL/well and incubated overnight at 37° C., 5% CO2, and 95% humidity to form spheroids. The next day, serial dilutions of test compounds were prepared in complete growth media and 500 μL existing media was removed from each well and replaced with fresh media containing compound titers. Spheroids were then incubated with test compounds for 4 hours or 24 hours under the same conditions. […] Western blots were performed to quantify phospho-GCN2 (R&D Systems, Minneapolis, MN), ATF4, CHOP, cleaved PARP, cleaved Caspase 3 and 7, and beta-Actin (Cell Signaling Technology, Danvers, MA). […]

[1] = test system: H929 Multiple Myeloma cells; assay: Cell proliferation, combination with standard of care, H929; type: cell-based; conditions: Homo sapiens, NCI-H929; with 3 nM bortezomib, 96 h, FIG. 6B; read-out: inhibition of cell proliferation IC50, combination treatment
Method: H929, RPMI8226, GA-10 and DoHH-2 cells (catalog #CRL-9068) were obtained from the American Type Culture Collection (ATTC, Manassas, VA). H929 Cells were maintained in RPMI-1640 medium supplemented with 20% heat-inactivated fetal bovine serum (catalog #A3840002, ThermoFisher Scientific, Waltham, MA), 1% Penicillin/Streptomycin/L-Glutamine (catalog #10378016, ThermoFisher Scientific, Waltham, MA), and 0.05 mM 2-mercaptoethanol (catalog #21985-023, ThermoFisher Scientific, Waltham, MA). […]
For cell proliferation assay appropriate number of cells (Forty thousand cells for H929. Twenty thousand cells for RPMI8226 and GA-10. Eight thousand cells for DoHH-2) were seeded per well in 200 μL in respective medium were dispensed into a 96-well black clear bottom plate. […] Plates were read on a Synergy2 or equivalent reader (Biotek, Winooski VT) using an excitation of 540 nm and an emission of 600 nm. At the end of the incubation of DoHH-2, cell viability was determined using CellTiter-Glo® assay (Promega, Madison, WI). Luminescence was measured using EnVision MultiLabel Reader (PerkinElmer, Waltham, MA). Data was analyzed using GraphPad Prism software (GraphPad, San Diego, CA) to calculate IC50 values.

[2] = test system: LoVo colorectal xenograft; assay: LoVo xenograft efficacy model; type: in vivo, mice; conditions: 5 mg/kg BID, 22 days of dosing
Method: The LoVo xenograft model was performed in compliance with all the laws, regulations and guidelines of the National Institutes of Health (NIH) and with the approval of the Animal Care and Use Committee of Crown Bioscience (Taicang, China), an AAALAC accredited facility. Food and water were provided ad libitum. […] Female Balb/c nude mice (5-9 weeks old) were inoculated subcutaneously just below the right high axilla with ten million cells in Dulbecco's Phosphate Buffered Saline, using a 27-gauge needle and syringe. When tumor burdens reached 100 mm 3 on average on day 6, mice were randomly assigned into groups such that the mean tumor burden for all groups was within 10% of the overall mean tumor burden for the study population. Groups were treated on days 6-27 as follows: vehicle control (dosed orally) (n=9); Compound 2 dosed orally at 5 mg/kg BID (n=9); Compound 2 dosed orally at 1 mg/kg BID. Tumor volume and body weights were measured three time per week. Tumor burden (mg) was estimated from caliper measurements by the formula: tumor burden (mg=mm 3)=(length×width 2)/2.

Cn1cc(-c2cccc(NS(=O)(=O)c3cc(Cl)cc(CO)c3Cl)c2F)c2c(N)ncnc21 [Example 2, N-(3-(4-amino-7-methyl-7H-pyrrolo[2,3-d]pyrimidin-5-yl)-2-fluorophenyl)-2,5-dichloro-3-(hydroxymethyl)benzenesulfonamide]
upregulation of ATF4 (Western blot quantification) (H2030 spheroids): up to 20 fold
IC50 [1]: 6 nM
mean tumor growth inhibition [2]: 69%
